Reference: patent publication US20200339544A1 (JOINT STOCK COMPANY "BIOCAD", priority 2017, published 2020)
Like-named read-outs stand apart in the source and are kept apart here. Marks after values point to notes of the source that are not given here.

Columns and labels:
[1] = molecular target: T1, WT EGFR (Wild-Type EGFR) (Homo sapiens, UniProt P00533); experiment: Inhibition of WT EGFR kinase activity (ADP-Glo); type: biochemical
T1 construct: purchased SignalChem
Experimental: (§1) To assess IC50 values of the compounds disclosed herein, a biochemical assay of inhibition of kinase activity in a non-cellular system and a functional cellular anti-proliferation assay were used.
(§2) To assess inhibition of WT EGFR (Wild-Type EGFR), DM EGFR (DoubleMutantEGFR, L828R/T790M) kinase activity, SignalChem kinase system and ADP-Glo™ Kinase Assay (V9102, Promega) detection kit were used.
(§3) The measurements were carried out in a 25 μL reaction volume using a 96-well plate. […] The solution of 0.5 mg/mL peptide substrate and 50 μM ATP in the same buffer were added; the solution was incubated for 180 minutes at 37° C. To detect the amount of ATP taken up during the kinase reaction, the ADP Glo Detection Kit (V9102, Promega) was used. The luminescence was measured with the Infinite M200Pro plate spectrophotometer (Tecan, Switzerland). IC50 values were calculated using Magellan 7.2 software (Tecan, Switzerland) approximating experimental points by four-parameter logistic model with the optimization by Levenberg-Marquardt (Table 14).

[2] = molecular target: T2, DM EGFR (DoubleMutantEGFR, L828R/T790M) (Homo sapiens, UniProt P00533, L858R/T790M); experiment: Inhibition of DM EGFR kinase activity (ADP-Glo); type: biochemical; conditions: for IC50: inhibition of kinase activity, EGFR DM (L828R/T790M); for SI, IC50(WT)/IC50(DM): selectivity index, kinase EGFR WT vs EGFR DM
T2 construct: purchased SignalChem
Experimental: as §1, §2, §3

[3] = Chemical stability in human blood plasma; type: in vitro ADME; conditions: pooled human blood plasma; 10 μm; 4 hours at 37° C.; substance amount remaining
Experimental: 2) Determination of chemical stability in human blood plasma.
Determination of stability in human blood plasma was performed using pooled human blood plasma taken from ten healthy donors. The initial candidate solution (10 mM in DMSO) was diluted with pooled blood plasma to a concentration of 10 μm (test solution). The test solution was incubated in a dry block thermostat for 4 hours at 37° C. HPLC with Agilent 1200 liquid chromatography system (Agilent, USA) was employed to determine peak areas of the compounds in test samples, said peak areas corresponding to the initial test time (prior to incubation) and the final test time (after incubation in a dry block thermostat for 4 hours at 37° C.), proteins were preliminarily precipitated with acetonitrile. We used gradient elution (1 mL/min flow rate). Substance amount in % in a sample after thermostatting was determined.
The stability of the compounds was estimated.

[4] = tested on: A549 (lung adenocarcinoma, WT); experiment: Antiproliferative activity on A549 cells (Alamar Blue); type: cell-based; conditions: Homo sapiens, antiproliferative test
Experimental: (§4) Antiproliferative activity of EGFR inhibitors (Tables 15 and 16) was measured in cell-based bioassay on continuous epithelial cell cultures: A549 (lung adenocarcinoma, ATCC® CRM-CCL-185™—WT), HCC827 (lung adenocarcinoma, ATCC® CRL-2868™—SM (SingleMutantEGFR, exon19delE746-A750)) and H1975 (lung adenocarcinoma, ATCC® CRL-5908™—DM (DoubleMutantEGFR, L828R/T790M)) using cell viability reagent Alamar Blue (ThermoFisher, # DAL1100). Cells were cultured in 10% FBS-supplemented (Gibco, #16140071) RPMI-1640 (PanEco, S330p) for at least 1 passage after thawing, washed with PBS and passaged in 96-well culture plates (3599, Corning) with RPMI-1640 growth medium supplemented with 2% FBS in an amount of 5*10^3 cells/well for A549, 10*10^3 cells/well for HCC827 and 15*10^3 cells/well for H1975 in 100 μL, and incubated at 37° C. in an incubator (Thermo Forma, USA) under 5% of CO2 for 16-18 h for cell attachment.
(§5) The test compounds were dissolved in DMSO in the selected range of concentrations and transferred to RPMI-1640 medium (PanEco, S330p) supplemented with 2% FBS. After adding 50 μl of the prepared dilutions to the cells, the incubation mixture contained the final concentrations of the test substances and no more than 1% DMSO. The plates were Incubated at 37° C. for 72 h. After incubation, 15 μl of Alamar Blue vital dye (ThermoFisher, # DAL1100) was added to each well. The plates were shaken on an orbital shaker (Biosan, Latvia) and further incubated for 3-5 h in a CO2 incubator (Thermo Forma, USA). Number of living cells was estimated using a plate spectrophotometer Infinite M200Pro, (Tecan, Switzerland) measuring fluorescent signal at the excitation wavelength (λEx) of 540 nm and emission wavelength (λEm) of 590 nm.
IC50 was calculated using Magellan 7.2 software (Tecan, Switzerland) approximating experimental points by four-parameter logistic model with the optimization by Levenberg-Marquardt.
(§6) The ratio between IC50 for cell lines containing wild-type EGFR (A549) and IC50 for cell lines containing target mutation L828R/T790M (H1975) is the selectivity index (SI): […]

[5] = tested on: H1975 (lung adenocarcinoma, DM, L828R/T790M); experiment: Antiproliferative activity on H1975 cells (Alamar Blue); type: cell-based; conditions: for IC50: Homo sapiens, NCI-H1975, H1975 cells; for SI IC50(A549)/IC50(DM): selectivity index, A549 vs H1975 cells
Experimental: as §4, §5
IC50 was calculated using Magellan 7.2 software (Tecan, Switzerland) approximating experimental points by four-parameter logistic model with the optimization by Levenberg-Marquardt. […]
as §6

[6] = General cytotoxicity on HepG2 cells; type: cell-based; conditions: human; general cytotoxicity, HepG2 cells, 72 hours, average of several tests
Experimental: (§7) The CC50 values were determined in the test for General cytotoxicity on HepG2 cells (rhepatocellular carcinoma, ATCC® HB-8065™) (Table 16). The cells were subcultured in DMEM medium (PanEco, S420p) supplemented with 10% FBS (Gibco, #16140071) for at least 1 passage after thawing, washed with PBS and passaged in 96-well culture plates (3599, Corning) at a concentration of 2*10^4 cells/100 μL per well, and incubated for 16-18 h. The test substances were titrated in DMSO and transferred to DMEM (PanEco, S420p) medium supplemented with 2% FBS, added to the cells and incubated at 37° C. for 72 hours; viability of the cells was then assessed using Alamar Blue dye (ThermoFisher, # DAL1100). CC50 was determined similarly to IC50.
(§8) The ratio between CC50 for HepG2 cell line and IC50 for H1975 cell line is the therapeutic index (TI): […]

[7] = tested on: HepG2 cells; experiment: General cytotoxicity on HepG2 cells; type: cell-based; conditions: therapeutic index, CC50 HepG2 / IC50 H1975
Experimental: as §7, §8

[8] = antiproliferative test, Table 15, read-out: IC50 H1975 (DM)
[9] = average values obtained in several tests, Table 16, read-out: H1975 (DM) IC50

SMILES	IC50 [1]	IC50 [2]	SI, IC50(WT)/IC50(DM) [2]	Stability in blood plasma, % [3]	IC50 [4]	IC50 [5, 8]	SI IC50(A549)/IC50(DM) [5]	IC50 [5, 9]	CC50 at 72 h [6]	TI, CC50/IC50 [7]
C=CC(=O)Nc1cc(Nc2nccc(C(=O)c3ccc(N4CCC(N)CC4)cc3OC)n2)c(OC)cc1N(C)CCN(C)C [EGFR_3365-126]	19.8 nM	1.86 nM	10.62	–	–	–	–	–	–	–
C=CC(=O)Nc1cc(Nc2nccc(C(=O)c3ccc(N4CCCC4=O)cc3)n2)c(OC)cc1N(C)CCN(C)C [EGFR_3365_91]	107 nM	4.55 nM	23.60	95.4%	31600 nM	> 200 nM	<158	–	–	–
C=CC(=O)Nc1cc(Nc2nccc(C(=O)c3ccc(OCCOC)cc3)n2)c(OC)cc1N(C)CCN(C)C [EGFR_3365_92, N-(2-((2-(dimethylamino)ethyl)(methyl)amino)-4-methoxy-5-((4-(4-(2-methoxyethoxy)benzoyl)pyrimidin-2-yl)amino)phenyl) acrylamide]	133 nM	7.57 nM	17.56	99.1%	22900 nM	35.1 nM	652	–	–	–
C=CC(=O)Nc1cc(Nc2nccc(C(=O)c3ccc(N4CCC(C#N)CC4)cc3)n2)c(OC)cc1N(C)CCN(C)C [EGFR_3365_97, N-(5-((4-(4-(4-cyanopiperidin-1-yl)benzoyl)pyrimidin-2-yl)amino)-2-((2-(dimethylamino)ethyl)(methyl)amino)-4-methoxyphenyl)acrylamide]	84.2 nM	2.3 nM	36.55	99.3%	13800 nM	22.9 nM	601	22.9 nM	21600 nM	943
C=CC(=O)Nc1cc(Nc2nccc(C(=O)c3ccc(N4CCC(OC)CC4)cc3)n2)c(OC)cc1N(C)CCN(C)C [EGFR_3365_98, N-(2-((2-(dimethylamino)ethyl)(methyl)amino)-4-methoxy-5-((4-(4-(4-methoxypiperidin-1-yl)benzoyl)pyrimidin-2-yl)amino)phenyl)acrylamide]	83.2 nM	1.86 nM	44.62	96.1%	14500 nM	13.7 nM	1065	13.7 nM	24200 nM	1770
C=CC(=O)Nc1cc(Nc2nccc(C(=O)c3ccc(N4CCC[C@H](OC)C4)cc3)n2)c(OC)cc1N(C)CCN(C)C [EGFR_3365_110, (S)-N-(2-((2-(dimethylamino)ethyl)(methyl)amino)-4-methoxy-5-((4-(4-(3-methoxypiperidin-1-yl)benzoyl)pyrimidin-2-yl)amino)phenyl)acrylamide]	97.7 nM	2.32 nM	42.20	95.7%	9510 nM	21.7 nM	439	21.7 nM	18500 nM	855
C=CC(=O)Nc1cc(Nc2nccc(C(=O)c3ccc(N4CCC[C@@H](OC)C4)cc3)n2)c(OC)cc1N(C)CCN(C)C [EGFR_3365_111, (R)-N-(2-((2-(dimethylamino)ethyl)(methyl)amino)-4-methoxy-5-((4-(4-(3-methoxypiperidin-1-yl)benzoyl)pyrimidin-2-yl)amino)phenyl)acrylamide]	186 nM	2.33 nM	79.88	100.0%	11200 nM	36.6 nM	307	36.6 nM	27100 nM	742
C=CC(=O)Nc1cc(Nc2nccc(C(=O)c3ccc(OC4CC4)cc3)n2)c(OC)cc1N(C)CCN(C)C [EGFR_3365_116, N-(5-((4-(4-cyclopropoxybenzoyl)pyrimidin-2-yl)amino)-2-((2-(dimethylamino)ethyl)(methyl)amino)-4-methoxyphenyl)acrylamide]	35 nM	1.75 nM	19.99	86.0%	11800 nM	29.5 nM	400	29.5 nM	22100 nM	749
C=CC(=O)Nc1cc(Nc2nccc(C(=O)c3ccc(N4CCC(N(C)C)CC4)cc3OC)n2)c(OC)cc1N(C)CCN(C)C [EGFR_3365_127, N-(2-((2-(dimethylamino)ethyl)(methyl)amino)-5-((4-(4-(4-(dimethylamino)piperidin-1-yl)-2-methoxybenzoyl)pyrimidin-2-yl)amino)-4-methoxyphenyl)acrylamide]	24.5 nM	2.96 nM	8.29	–	> 10000 nM	8.45 nM	>166**	–	–	–
